According to ChEMBL document CHEMBL1949541, “Discovery of 7-arylsulfonyl-1,2,3,4, 4a,9a-hexahydro-benzo[4,5]furo[2,3-c]pyridines: identification of a potent and selective 5-HT₆ receptor antagonist showing activity in rat social recognition test” (Bioorg Med Chem Lett, 2012):
Blank lines part the entries; values can stand above or below the compound they belong to.

Assays:
[1] = target: T1, 5-hydroxytryptamine receptor 6 (Homo sapiens, UniProt P50406); experiment: Displacement of [3H]LSD from human recombinant 5HT6 receptor
T1 sequence (P50406 whole entry): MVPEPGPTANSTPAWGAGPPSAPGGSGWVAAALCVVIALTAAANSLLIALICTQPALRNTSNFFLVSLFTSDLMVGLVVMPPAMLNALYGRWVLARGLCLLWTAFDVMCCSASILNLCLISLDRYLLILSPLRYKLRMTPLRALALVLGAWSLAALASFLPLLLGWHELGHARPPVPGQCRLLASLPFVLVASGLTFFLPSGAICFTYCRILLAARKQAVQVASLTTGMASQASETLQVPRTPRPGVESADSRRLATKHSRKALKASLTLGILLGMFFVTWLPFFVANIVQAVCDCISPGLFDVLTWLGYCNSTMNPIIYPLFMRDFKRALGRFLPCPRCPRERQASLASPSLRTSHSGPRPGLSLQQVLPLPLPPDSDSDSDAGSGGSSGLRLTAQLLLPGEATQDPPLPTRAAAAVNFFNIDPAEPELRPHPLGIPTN

Rattus norvegicus [2] = experiment: Half life in rat at 1 mg/kg, iv; type: ADME, organism-based; parameters: dose 1 mg/kg, route intravenous; conditions: in vivo
Rattus norvegicus [3] = experiment: Volume of distribution in rat at 1 mg/kg, iv; type: ADME, organism-based; parameters: dose 1 mg/kg, route intravenous; conditions: in vivo
[4] = Oral bioavailability in rat at 5 mg/kg at 24 hrs; type: ADME, organism-based; conditions: in vivo
[5] = Ratio of drug uptake in brain to plasma in rat at 5 mg/kg, po; type: ADME, organism-based; parameters: dose 5 mg/kg, route oral; conditions: read-out: BPR
[6] = target: T1, 5-hydroxytryptamine receptor 6; experiment: Antagonist activity at human 5HT6 receptor expressed in human astrocytoma cells assessed as inhibition of cAMP production; type: functional, cell-based
[7] = target: 5-hydroxytryptamine receptor 6 (Rattus norvegicus, UniProt P31388); experiment: Displacement of [3H]LSD from rat recombinant 5HT6 receptor
Sequence of 5-hydroxytryptamine receptor 6 (Rattus norvegicus, UniProt P31388) (P31388 whole entry): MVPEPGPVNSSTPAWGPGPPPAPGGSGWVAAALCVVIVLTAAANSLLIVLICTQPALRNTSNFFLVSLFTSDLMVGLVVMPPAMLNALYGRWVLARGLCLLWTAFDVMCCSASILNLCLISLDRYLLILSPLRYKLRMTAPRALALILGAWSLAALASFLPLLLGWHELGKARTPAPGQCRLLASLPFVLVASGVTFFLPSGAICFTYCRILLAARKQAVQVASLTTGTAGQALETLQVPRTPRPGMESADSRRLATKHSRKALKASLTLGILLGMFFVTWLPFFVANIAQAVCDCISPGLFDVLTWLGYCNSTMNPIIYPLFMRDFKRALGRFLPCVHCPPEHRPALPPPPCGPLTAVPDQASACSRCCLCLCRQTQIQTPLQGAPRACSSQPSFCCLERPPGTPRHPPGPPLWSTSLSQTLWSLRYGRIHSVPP

[8] = Aqueous solubility at pH 7.4; type: physicochemical; conditions: buffer
[9] = Aqueous solubility at pH 2; type: physicochemical; conditions: buffer
[10] = Apparent permeability from apical to basal side of MDCK2-MDR1; type: ADME, cell-based, Canis lupus familiaris, MDCK-II; conditions: dog, MDCK-MDR1
[11] = Plasma protein binding in rat; type: ADME, cell-free; conditions: read-out: PPB (converted)
[12] = Plasma protein binding in human; type: ADME, cell-free; conditions: read-out: PPB (converted)
[13] = Half life in mouse liver microsomes; type: ADME, Microsome
[14] = Half life in rat liver microsomes; type: ADME, Microsome
[15] = Half life in dog liver microsomes; type: ADME, Canis lupus familiaris, Microsome
[16] = Half life in human liver microsomes; type: ADME, Microsome
Cytochrome P450 1A2 = Cytochrome P450 1A2 (Homo sapiens, UniProt P05177); experiment: Inhibition of CYP 1A2; type: ADME
Sequence of Cytochrome P450 1A2 (P05177 whole entry): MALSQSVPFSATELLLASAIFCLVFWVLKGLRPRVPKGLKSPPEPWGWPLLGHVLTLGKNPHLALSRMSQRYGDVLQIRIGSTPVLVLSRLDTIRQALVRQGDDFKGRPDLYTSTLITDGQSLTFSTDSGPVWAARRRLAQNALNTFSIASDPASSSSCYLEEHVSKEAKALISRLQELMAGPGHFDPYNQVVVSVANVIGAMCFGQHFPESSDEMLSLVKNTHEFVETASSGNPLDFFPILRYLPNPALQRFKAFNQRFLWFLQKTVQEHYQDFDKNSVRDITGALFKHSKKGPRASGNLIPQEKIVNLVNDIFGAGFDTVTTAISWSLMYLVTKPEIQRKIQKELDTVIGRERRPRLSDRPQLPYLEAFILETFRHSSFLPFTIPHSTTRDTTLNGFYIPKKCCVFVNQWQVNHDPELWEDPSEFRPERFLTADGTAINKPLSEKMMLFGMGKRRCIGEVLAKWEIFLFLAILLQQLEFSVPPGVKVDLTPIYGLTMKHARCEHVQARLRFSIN

Cytochrome P450 2C9 = Cytochrome P450 2C9 (Homo sapiens, UniProt P11712); experiment: Inhibition of CYP 2C9; type: ADME
Sequence of Cytochrome P450 2C9 (P11712 whole entry): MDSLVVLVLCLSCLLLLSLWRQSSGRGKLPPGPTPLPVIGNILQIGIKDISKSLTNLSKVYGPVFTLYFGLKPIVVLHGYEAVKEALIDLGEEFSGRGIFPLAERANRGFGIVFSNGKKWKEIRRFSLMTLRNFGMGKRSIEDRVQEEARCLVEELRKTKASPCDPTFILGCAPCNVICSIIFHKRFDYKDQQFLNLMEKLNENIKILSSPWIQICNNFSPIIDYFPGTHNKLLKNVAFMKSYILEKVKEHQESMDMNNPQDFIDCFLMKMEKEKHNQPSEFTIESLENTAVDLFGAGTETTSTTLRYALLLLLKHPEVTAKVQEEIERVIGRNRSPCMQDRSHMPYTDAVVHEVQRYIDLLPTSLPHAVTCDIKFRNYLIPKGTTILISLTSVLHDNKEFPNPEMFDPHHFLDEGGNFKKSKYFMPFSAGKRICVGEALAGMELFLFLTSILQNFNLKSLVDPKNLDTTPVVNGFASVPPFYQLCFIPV

Cytochrome P450 2C19 = Cytochrome P450 2C19 (Homo sapiens, UniProt P33261); experiment: Inhibition of CYP 2C19; type: ADME
Cytochrome P450 2D6 = Cytochrome P450 2D6 (Homo sapiens, UniProt P10635); experiment: Inhibition of CYP 2D6; type: ADME
Cytochrome P450 3A4 = Cytochrome P450 3A4 (Homo sapiens, UniProt P08684); experiment: Inhibition of CYP 3A4; type: ADME
[17] = target: 5-hydroxytryptamine receptor 2A (Homo sapiens, UniProt P28223); experiment: Inhibition of human 5HT2A
[18] = target: 5-hydroxytryptamine receptor 2B (Homo sapiens, UniProt P41595); experiment: Inhibition of human 5HT2B
Sequence of 5-hydroxytryptamine receptor 2B (P41595 whole entry): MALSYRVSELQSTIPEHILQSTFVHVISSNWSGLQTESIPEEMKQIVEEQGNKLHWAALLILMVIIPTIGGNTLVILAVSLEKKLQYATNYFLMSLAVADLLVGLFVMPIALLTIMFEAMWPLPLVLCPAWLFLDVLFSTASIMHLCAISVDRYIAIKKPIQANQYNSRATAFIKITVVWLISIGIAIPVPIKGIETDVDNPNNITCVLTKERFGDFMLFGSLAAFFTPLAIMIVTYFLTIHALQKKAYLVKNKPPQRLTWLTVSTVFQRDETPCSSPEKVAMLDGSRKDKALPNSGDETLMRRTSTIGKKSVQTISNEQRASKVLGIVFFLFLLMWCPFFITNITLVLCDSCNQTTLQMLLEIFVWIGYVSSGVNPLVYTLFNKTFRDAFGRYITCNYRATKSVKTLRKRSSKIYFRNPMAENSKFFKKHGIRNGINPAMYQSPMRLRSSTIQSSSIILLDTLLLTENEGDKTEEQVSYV

[19] = target: 5-hydroxytryptamine receptor 2C (Homo sapiens, UniProt P28335); experiment: Inhibition of human 5HT2C
Sequence of 5-hydroxytryptamine receptor 2C (P28335 whole entry): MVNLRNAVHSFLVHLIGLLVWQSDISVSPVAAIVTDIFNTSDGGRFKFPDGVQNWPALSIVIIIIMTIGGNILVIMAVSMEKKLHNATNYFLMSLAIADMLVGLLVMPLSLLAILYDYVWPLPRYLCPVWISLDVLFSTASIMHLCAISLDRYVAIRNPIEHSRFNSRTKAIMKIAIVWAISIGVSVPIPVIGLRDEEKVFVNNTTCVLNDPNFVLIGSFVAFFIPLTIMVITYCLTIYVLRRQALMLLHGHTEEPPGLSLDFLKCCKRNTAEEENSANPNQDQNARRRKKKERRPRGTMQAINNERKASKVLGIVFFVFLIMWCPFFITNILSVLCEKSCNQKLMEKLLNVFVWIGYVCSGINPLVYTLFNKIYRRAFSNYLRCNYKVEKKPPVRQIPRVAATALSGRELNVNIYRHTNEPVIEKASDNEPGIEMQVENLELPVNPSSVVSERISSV

[20] = target: Voltage-gated inwardly rectifying potassium channel KCNH2 (Homo sapiens, UniProt Q12809); experiment: Inhibition of human ERG by patch clamp assay
Sequence of Voltage-gated inwardly rectifying potassium channel KCNH2 (Q12809 whole entry): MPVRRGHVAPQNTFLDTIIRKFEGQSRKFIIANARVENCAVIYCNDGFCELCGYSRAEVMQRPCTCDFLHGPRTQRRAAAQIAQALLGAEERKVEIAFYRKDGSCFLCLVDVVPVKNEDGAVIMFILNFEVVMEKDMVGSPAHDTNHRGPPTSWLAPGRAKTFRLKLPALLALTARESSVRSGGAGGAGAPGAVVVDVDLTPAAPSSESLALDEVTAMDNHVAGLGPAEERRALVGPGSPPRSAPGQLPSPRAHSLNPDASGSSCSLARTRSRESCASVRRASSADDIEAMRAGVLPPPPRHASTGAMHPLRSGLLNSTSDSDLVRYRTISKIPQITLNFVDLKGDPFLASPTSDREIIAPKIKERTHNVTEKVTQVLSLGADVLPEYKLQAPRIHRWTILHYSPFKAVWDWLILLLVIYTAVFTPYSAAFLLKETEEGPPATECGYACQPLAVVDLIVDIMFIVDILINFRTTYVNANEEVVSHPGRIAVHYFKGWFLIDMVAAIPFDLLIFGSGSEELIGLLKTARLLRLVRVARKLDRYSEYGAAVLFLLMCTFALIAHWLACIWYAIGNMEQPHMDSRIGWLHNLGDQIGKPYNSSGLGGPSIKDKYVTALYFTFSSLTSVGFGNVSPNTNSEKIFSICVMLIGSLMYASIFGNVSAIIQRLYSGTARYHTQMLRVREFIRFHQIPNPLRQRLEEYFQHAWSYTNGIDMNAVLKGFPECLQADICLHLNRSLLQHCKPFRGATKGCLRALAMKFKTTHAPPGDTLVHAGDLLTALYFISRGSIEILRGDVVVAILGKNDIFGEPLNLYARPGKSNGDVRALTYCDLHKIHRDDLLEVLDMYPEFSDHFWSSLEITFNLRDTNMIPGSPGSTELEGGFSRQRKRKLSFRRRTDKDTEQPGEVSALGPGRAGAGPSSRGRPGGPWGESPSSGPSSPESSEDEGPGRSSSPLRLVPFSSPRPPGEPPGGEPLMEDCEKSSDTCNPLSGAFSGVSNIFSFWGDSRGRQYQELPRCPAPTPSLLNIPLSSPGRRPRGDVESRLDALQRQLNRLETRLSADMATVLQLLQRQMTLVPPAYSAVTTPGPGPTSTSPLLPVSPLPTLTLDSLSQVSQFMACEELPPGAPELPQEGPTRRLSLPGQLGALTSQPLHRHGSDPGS

[21] = target: Muscarinic acetylcholine receptor M1 (Homo sapiens, UniProt P11229); experiment: Inhibition of M1 receptor
[22] = target: Muscarinic acetylcholine receptor M2 (Homo sapiens, UniProt P08172); experiment: Inhibition of M2 receptor
[23] = target: Muscarinic acetylcholine receptor M4 (Homo sapiens, UniProt P08173); experiment: Inhibition of M4 receptor
[24] = target: Sodium-dependent dopamine transporter (Homo sapiens, UniProt Q01959); experiment: Inhibition of DA transporter
Sequence of Sodium-dependent dopamine transporter (Q01959 whole entry): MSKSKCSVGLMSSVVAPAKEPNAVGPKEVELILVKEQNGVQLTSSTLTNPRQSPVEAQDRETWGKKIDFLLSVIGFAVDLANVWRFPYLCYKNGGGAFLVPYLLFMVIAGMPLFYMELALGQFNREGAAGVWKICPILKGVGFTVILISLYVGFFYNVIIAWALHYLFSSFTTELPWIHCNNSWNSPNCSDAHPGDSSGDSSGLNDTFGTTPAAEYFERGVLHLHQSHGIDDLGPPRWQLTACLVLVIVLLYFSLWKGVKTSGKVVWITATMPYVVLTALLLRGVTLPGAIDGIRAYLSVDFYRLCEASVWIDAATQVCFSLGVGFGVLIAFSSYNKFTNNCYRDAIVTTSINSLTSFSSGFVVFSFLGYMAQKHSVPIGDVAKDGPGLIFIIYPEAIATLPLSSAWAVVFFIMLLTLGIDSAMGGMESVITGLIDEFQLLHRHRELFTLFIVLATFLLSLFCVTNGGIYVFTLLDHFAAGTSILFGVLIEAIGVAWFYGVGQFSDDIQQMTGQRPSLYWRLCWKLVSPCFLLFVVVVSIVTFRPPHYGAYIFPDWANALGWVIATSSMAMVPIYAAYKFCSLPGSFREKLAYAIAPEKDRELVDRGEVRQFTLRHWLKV

[25] = target: Sodium-dependent noradrenaline transporter (Homo sapiens, UniProt P23975); experiment: Inhibition of NA transporter
[26] = Inhibition of calcium channel-L type
Rattus norvegicus [27] = experiment: Antiamnesic activity in rat assessed as decrease in ratio of investigation duration of familiar juvenile rat at 0.3 mg/kg, ip administered 120 mins prior to test by social recognition test; type: functional; parameters: scale not given: the % may be the effect or the level left; conditions: route intraperitoneal
Rattus norvegicus [28] = experiment: Antiamnesic activity in rat assessed as decrease in ratio of investigation duration of familiar juvenile rat at 1 mg/kg, ip administered 120 mins prior to test by social recognition test; type: functional; parameters: scale not given: the % may be the effect or the level left; conditions: route intraperitoneal
Rattus norvegicus [29] = experiment: Antiamnesic activity in rat assessed as decrease in ratio of investigation duration of familiar juvenile rat at 3 mg/kg, ip administered 120 mins prior to test by social recognition test; type: functional; parameters: scale not given: the % may be the effect or the level left; conditions: route intraperitoneal
[30] = Oral bioavailability in rat; type: ADME, organism-based; conditions: in vivo

Ki [1]: 21 nM
SMILES: CC(C)Oc1cccc(S(=O)(=O)c2ccc3c(c2)O[C@H]2CNCC[C@@H]32)c1F (single isomer, unassigned; enantiomer 2)

t1/2 (Rattus norvegicus [2]): 42 min | Vd (Rattus norvegicus [3]): 5.7 L/kg | bioavailability [4]: 24% | Kp [5]: 0.7
SMILES: O=S(=O)(c1ccccc1)c1cnc2c(N3CCNCC3)cccc2c1 [INTEPIRDINE]

Ki [1]: 48 nM | IC50 [6]: 357 nM
SMILES: O=S(=O)(c1cccc(C(F)(F)F)c1)c1ccc2c(c1)O[C@H]1CNCC[C@@H]21 (racemic)

Ki [1]: 2 nM | IC50 [6]: 6 nM
SMILES: O=S(=O)(c1ccc2c(c1)O[C@H]1CNCC[C@@H]21)c1cccc(Cl)c1Cl (single isomer, unassigned; enantiomer 2)

Ki [1]: 4 nM | Ki [7]: 27 nM | IC50 [6]: 67 nM | t1/2 (Rattus norvegicus [2]): 150 min | Vd (Rattus norvegicus [3]): 4.3 L/kg | bioavailability [4]: 39% | Kp [5]: 2.76 | solubility [8]: > 130 µg/mL | solubility [9]: > 130 µg/mL | Papp A→B [10]: 2.88 ×10⁻⁶ cm/s | fraction unbound [11]: 0.027 | fraction unbound [12]: 0.046 | half-life [13]: > 40 min | half-life [14]: > 40 min | half-life [15]: > 40 min | half-life [16]: > 40 min | IC50 (Cytochrome P450 1A2): > 30000 nM | IC50 (Cytochrome P450 2C9): > 30000 nM | IC50 (Cytochrome P450 2C19): > 22900 nM | IC50 (Cytochrome P450 2D6): > 30000 nM | IC50 (Cytochrome P450 3A4): > 5900 nM | Ki [17]: 3700 nM | Ki [18]: 6200 nM | Ki [19]: 19000 nM | IC50 [21]: 2200 nM | IC50 [22]: 7900 nM | IC50 [23]: 4800 nM | IC50 [24]: 6300 nM | IC50 [25]: 4400 nM | IC50 [26]: 3900 nM
SMILES: COc1cc(OC(C)C)cc(S(=O)(=O)c2ccc3c(c2)O[C@H]2CNCC[C@@H]32)c1.Cl (single isomer, unassigned; enantiomer 1)
IC50 [20]: 3300 nM | Activity (Rattus norvegicus [27]): 22% | Activity (Rattus norvegicus [28]): 21% | Activity (Rattus norvegicus [29]): 35%

Ki [1]: 37 nM | Ki [7]: 243 nM | IC50 [6]: 227 nM
SMILES: Cc1cccc(S(=O)(=O)c2ccc3c(c2)O[C@H]2CNCC[C@@H]32)c1 (racemic)

Ki [1]: 68 nM | IC50 [6]: 790 nM
SMILES: O=S(=O)(c1cc(F)cc(Cl)c1)c1ccc2c(c1)O[C@H]1CNCC[C@@H]21 (single isomer, unassigned; enantiomer 1)

Ki [1]: 83 nM | bioavailability [30]: 15% | half-life [13]: > 40 min | half-life [14]: > 40 min | half-life [15]: > 40 min | half-life [16]: > 40 min
SMILES: Cl.O=S(=O)(c1ccccc1)c1ccc2c(c1)O[C@H]1CNCC[C@@H]21 (racemic)

Ki [1]: 28 nM | Ki [7]: 174 nM | IC50 [6]: 96 nM
SMILES: O=S(=O)(c1cc(F)cc(F)c1)c1ccc2c(c1)O[C@H]1CNCC[C@@H]21 (single isomer, unassigned; enantiomer 2)

Ki [1]: 23 nM | Ki [7]: 156 nM | IC50 [6]: 306 nM
SMILES: CC(C)Oc1cccc(S(=O)(=O)c2ccc3c(c2)O[C@H]2CNCC[C@@H]32)c1 (racemic)

Ki [1]: 21 nM | Ki [7]: 52 nM | IC50 [6]: 33 nM
SMILES: O=S(=O)(c1cccc(F)c1)c1ccc2c(c1)O[C@H]1CNCC[C@@H]21 (racemic)

Ki [1]: 11 nM | IC50 [6]: 63 nM
SMILES: O=S(=O)(c1cc(F)cc(Cl)c1)c1ccc2c(c1)O[C@H]1CNCC[C@@H]21 (single isomer, unassigned; enantiomer 2)

Ki [1]: 166 nM | Ki [7]: 2180 nM | IC50 [6]: 1360 nM
SMILES: O=S(=O)(c1cc(F)cc(F)c1)c1ccc2c(c1)O[C@H]1CNCC[C@@H]21 (single isomer, unassigned; enantiomer 1)

Ki [1]: 85 nM | IC50 [6]: 281 nM
SMILES: COc1cccc(S(=O)(=O)c2ccc3c(c2)O[C@H]2CNCC[C@@H]32)c1 (racemic)

Ki [1]: 32 nM | Ki [7]: 145 nM | IC50 [6]: 179 nM
SMILES: O=S(=O)(c1ccc2c(c1)O[C@H]1CNCC[C@@H]21)c1ccccc1F (racemic)

Ki [1]: 15 nM | Ki [7]: 136 nM | IC50 [6]: 135 nM
SMILES: O=S(=O)(c1ccc2c(c1)O[C@H]1CNCC[C@@H]21)c1ccccc1-c1ccccc1 (racemic)
